According to the supplement of paper PMC10307832:

Experiments:
Assay in all cases: relative viability (nuclei count vs DMSO), 5 days (fraction); higher = more cells survive
KIN001-266 + Tozasertib = compound: CCN1CCC(CC1)N2C=C(N=N2)CNC3=CC4=C(C(=CN=C4C(=C3)Cl)C#N)NC5=CC(=C(C=C5)F)Cl [KIN001-266] + Cc1cc(Nc2cc(N3CCN(C)CC3)nc(Sc3ccc(NC(=O)C4CC4)cc3)n2)n[nH]1 [Tozasertib] (partner 0.1 µM)
How it was run: (§1)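 Lung cancer cell lines were seeded in 1536-well plates and dosed by pin tool the next day, with either a single drug or a fixed anchor-drug dose combined with five library-drug doses (not always all listed) spaced in √10 steps. Five days later, one step fixed the cells and stained their nuclei (final 0.05% Triton X-100, 1% formaldehyde, 1 ug/ml Hoechst), and nuclei were counted on 4× images. Relative viability is the nuclei count in treated wells divided by the count in vehicle wells, and each value is the median of duplicate plates.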

KIN001-266 + Dasatinib = compound: CCN1CCC(CC1)N2C=C(N=N2)CNC3=CC4=C(C(=CN=C4C(=C3)Cl)C#N)NC5=CC(=C(C=C5)F)Cl [KIN001-266] + Cc1nc(Nc2ncc(C(=O)Nc3c(C)cccc3Cl)s2)cc(N2CCN(CCO)CC2)n1 [Dasatinib] (partner 0.075 µM)
How it was run: as §1

KIN001-266 + Foretinib = compound: CCN1CCC(CC1)N2C=C(N=N2)CNC3=CC4=C(C(=CN=C4C(=C3)Cl)C#N)NC5=CC(=C(C=C5)F)Cl [KIN001-266] + COc1cc2c(Oc3ccc(NC(=O)C4(C(=O)Nc5ccc(F)cc5)CC4)cc3F)ccnc2cc1OCCCN1CCOCC1 [Foretinib] (partner 0.25 µM)
How it was run: as §1

KIN001-266 + Phenformin = compound: CCN1CCC(CC1)N2C=C(N=N2)CNC3=CC4=C(C(=CN=C4C(=C3)Cl)C#N)NC5=CC(=C(C=C5)F)Cl [KIN001-266] + N=C(N)NC(=N)NCCc1ccccc1 [Phenformin] (partner 250 µM)
How it was run: as §1

KIN001-266 + OSI-027 = compound: CCN1CCC(CC1)N2C=C(N=N2)CNC3=CC4=C(C(=CN=C4C(=C3)Cl)C#N)NC5=CC(=C(C=C5)F)Cl [KIN001-266] + COc1cccc2cc(-c3nc([C@H]4CC[C@H](C(=O)O)CC4)n4ncnc(N)c34)[nH]c12 [OSI-027] (partner 0.5 µM)
How it was run: as §1

KIN001-266 + Luminespib = compound: CCN1CCC(CC1)N2C=C(N=N2)CNC3=CC4=C(C(=CN=C4C(=C3)Cl)C#N)NC5=CC(=C(C=C5)F)Cl [KIN001-266] + CCNC(=O)c1noc(-c2cc(C(C)C)c(O)cc2O)c1-c1ccc(CN2CCOCC2)cc1 [Luminespib] (partner 0.01 µM)
How it was run: as §1

KIN001-266 = compound: CCN1CCC(CC1)N2C=C(N=N2)CNC3=CC4=C(C(=CN=C4C(=C3)Cl)C#N)NC5=CC(=C(C=C5)F)Cl [KIN001-266]
How it was run: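 Cells of lung cancer lines were placed in 1536-well plates and kept overnight at 37 °C. Pinning then delivered five library-drug doses (not always all listed), spaced by √10, onto plates anchored with vehicle, and the cells were left 5 days without changing medium. One step fixed, permeabilised and stained them with Hoechst, and MetaXpress counted nuclei in 4× images. Viability, as a median over plates, is treated-well nuclei divided by vehicle-well nuclei, with acceptance only at control CV below 25% and at least one doubling.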

## NCI-H1623
KIN001-266 + Tozasertib; first compound 0.08 µM
  relative viability: 0.468
KIN001-266 + Tozasertib; first compound 0.253 µM
  relative viability: 0.421
KIN001-266 + Tozasertib; first compound 0.8 µM
  relative viability: 0.461
KIN001-266 + Tozasertib; first compound 2.53 µM
  relative viability: 0.432
KIN001-266 + Tozasertib; first compound 8 µM
  relative viability: 0.422
KIN001-266 + Dasatinib; first compound 0.08 µM
  relative viability: 0.579
KIN001-266 + Dasatinib; first compound 0.253 µM
  relative viability: 0.514
KIN001-266 + Dasatinib; first compound 0.8 µM
  relative viability: 0.447
KIN001-266 + Dasatinib; first compound 2.53 µM
  relative viability: 0.547
KIN001-266 + Dasatinib; first compound 8 µM
  relative viability: 0.475
KIN001-266 + Foretinib; first compound 0.08 µM
  relative viability: 1.05
KIN001-266 + Foretinib; first compound 0.253 µM
  relative viability: 0.865
KIN001-266 + Foretinib; first compound 0.8 µM
  relative viability: 0.871
KIN001-266 + Foretinib; first compound 2.53 µM
  relative viability: 0.894
KIN001-266 + Foretinib; first compound 8 µM
  relative viability: 0.875
KIN001-266 + Phenformin; first compound 0.08 µM
  relative viability: 0.652
KIN001-266 + Phenformin; first compound 0.253 µM
  relative viability: 0.603
KIN001-266 + Phenformin; first compound 0.8 µM
  relative viability: 0.577
KIN001-266 + Phenformin; first compound 2.53 µM
  relative viability: 0.611
KIN001-266 + Phenformin; first compound 8 µM
  relative viability: 0.526
KIN001-266 + OSI-027; first compound 0.08 µM
  relative viability: 0.457
KIN001-266 + OSI-027; first compound 0.253 µM
  relative viability: 0.437
KIN001-266 + OSI-027; first compound 0.8 µM
  relative viability: 0.385
KIN001-266 + OSI-027; first compound 2.53 µM
  relative viability: 0.453
KIN001-266 + OSI-027; first compound 8 µM
  relative viability: 0.433
KIN001-266 + Luminespib; first compound 0.08 µM
  relative viability: 0.423
KIN001-266 + Luminespib; first compound 0.253 µM
  relative viability: 0.624
KIN001-266 + Luminespib; first compound 0.8 µM
  relative viability: 0.57
KIN001-266 + Luminespib; first compound 2.53 µM
  relative viability: 0.475
KIN001-266 + Luminespib; first compound 8 µM
  relative viability: 0.536
KIN001-266; 0.08 µM
  relative viability: 0.963
KIN001-266; 0.253 µM
  relative viability: 0.96
KIN001-266; 0.8 µM
  relative viability: 0.955
KIN001-266; 2.53 µM
  relative viability: 1.07
KIN001-266; 8 µM
  relative viability: 1.01
